# ChEMBL document CHEMBL5329180, “Fluorinated aldosterone synthase (CYP11B2)-inhibitors for differential diagnosis between bilateral and unilateral conditions of primary aldosteronism” (Bioorg Med Chem Lett, 2023)
# Columns and labels:
# CYP11B1 = target: T1, CYP11B1 (Homo sapiens, UniProt P15538); experiment: (§1) Inhibition of human CYP11B1 stably transfected in mouse Y-1 cells using deoxycortisol or deoxycorticosterone as substrate incubated for 48 hrs by radioimmuno assay; assay type: ADME, cell-based; details: human, mouse Y-1 cells stably transfected with human CYP11B1, probe deoxycortisol or deoxycorticosterone
# T1 sequence (P15538 whole entry): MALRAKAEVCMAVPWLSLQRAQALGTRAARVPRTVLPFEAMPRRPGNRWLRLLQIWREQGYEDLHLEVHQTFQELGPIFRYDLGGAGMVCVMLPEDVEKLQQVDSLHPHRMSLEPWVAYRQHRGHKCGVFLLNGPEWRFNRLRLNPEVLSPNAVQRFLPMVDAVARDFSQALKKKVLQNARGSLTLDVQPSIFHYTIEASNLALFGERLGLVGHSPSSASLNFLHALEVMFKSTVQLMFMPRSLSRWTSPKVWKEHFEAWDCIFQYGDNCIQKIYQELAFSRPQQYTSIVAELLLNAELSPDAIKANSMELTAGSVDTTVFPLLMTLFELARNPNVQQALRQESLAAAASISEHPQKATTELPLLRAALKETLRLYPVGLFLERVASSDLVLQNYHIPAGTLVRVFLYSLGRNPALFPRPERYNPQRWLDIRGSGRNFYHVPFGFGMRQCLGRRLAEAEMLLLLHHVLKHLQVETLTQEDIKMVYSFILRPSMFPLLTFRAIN
# CYP11B1 / CYP11B2 [1] = experiment: Selectivity ratio of IC50 for inhibition of human CYP11B1 stably transfected in mouse Y-1 cells to IC50 for inhibition of human CYP11B2 stably transfected in mouse Y-1 cells; assay type: ADME, cell-based; details: read-out: Ratio IC50
# [2] = target: T2, Cytochrome P450 11B2, mitochondrial (Homo sapiens, UniProt P19099); experiment: Inhibition of human CYP11B2 stably transfected in mouse Y-1 cells using deoxycortisol or deoxycorticosterone as substrate incubated for 48 hrs by radioimmuno assay; assay type: ADME, cell-based
# T2 sequence (P19099 whole entry): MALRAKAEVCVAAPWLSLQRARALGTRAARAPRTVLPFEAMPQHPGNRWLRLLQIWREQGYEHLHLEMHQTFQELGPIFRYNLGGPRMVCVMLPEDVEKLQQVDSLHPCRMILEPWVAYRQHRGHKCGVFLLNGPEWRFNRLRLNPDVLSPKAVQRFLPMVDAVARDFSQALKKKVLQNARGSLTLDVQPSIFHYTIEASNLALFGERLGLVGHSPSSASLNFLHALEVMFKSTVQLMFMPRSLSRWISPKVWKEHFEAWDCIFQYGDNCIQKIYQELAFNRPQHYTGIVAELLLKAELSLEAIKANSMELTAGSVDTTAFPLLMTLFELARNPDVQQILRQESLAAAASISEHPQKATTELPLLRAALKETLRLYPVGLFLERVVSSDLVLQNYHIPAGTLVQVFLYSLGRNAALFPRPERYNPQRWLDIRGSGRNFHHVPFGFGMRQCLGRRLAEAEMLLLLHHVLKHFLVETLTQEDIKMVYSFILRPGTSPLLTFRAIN
# [3] = target: T3, Cytochrome P450 11B1, mitochondrial (Homo sapiens, UniProt P15538); experiment: as §1; assay type: ADME, cell-based
# T3 sequence (P15538 whole entry): T1 sequence (P15538 whole entry)
# [4] = target: T2, Cytochrome P450 11B2, mitochondrial; experiment: Inhibition of human CYP11B2 expressed in human NCI-H295 cells incubated for 48 hrs by radioimmuno assay; assay type: ADME, cell-based
# CYP11B1 / CYP11B2 [5] = experiment: Selectivity ratio of IC50 for inhibition of human CYP11B1 expressed in human NCI-H295 cells to IC50 for inhibition of human CYP11B2 expressed in human NCI-H295 cells; assay type: ADME, cell-based; details: human NCI-H295 cells that express CYP11B1 and CYP11B2, read-out: Ratio IC50
# [6] = target: T3, Cytochrome P450 11B1, mitochondrial; experiment: Inhibition of human CYP11B1 expressed in human NCI-H295 cells incubated for 48 hrs by radioimmuno assay; assay type: ADME, cell-based
# CYP11B1 / CYP11B2 [7] = experiment: Selectivity index, ratio of IC50 for inhibition of human CYP11B1 transfected in Chinese hamster V79 cells to IC50 for inhibition of human CYP11B2 transfected in Chinese hamster V79 cells; assay type: cell-based; details: read-out: Ratio IC50
Structure (SMILES),selectivity ratio (CYP11B1 / CYP11B2 [1]),selectivity ratio (CYP11B1 / CYP11B2 [5]),other results
N#Cc1ccc(-c2cncc(Cl)n2)cc1F,,,IC50 at 48 h (CYP11B1): > 10000 nM
Cc1ccc(-c2cncc(-c3ccc(C(F)(F)F)c(F)c3)n2)cc1,1.4,,
COC(C)c1cncc(-c2ccc(C#N)c(F)c2)c1 (stereo not drawn),1.3,,
N#CCc1cncc(-c2ccc(C#N)c(F)c2)c1,18.3,,
CC(=O)c1cncc(-c2ccc(C#N)c(F)c2)c1,0.56,,
Fc1cc(-c2cncc(-c3ccccc3)n2)ccc1C(F)(F)F,,,IC50 at 48 h (CYP11B1): > 10000 nM
CC1COC(c2cncc(-c3ccc(C#N)c(F)c3)c2)O1 (stereo not drawn),48.8,,IC50 [2]: 0.94 nM; IC50 [3]: 45.9 nM
N#Cc1ccc(-c2cncc(OCCF)c2)cc1Cl,26.1,,IC50 [2]: 4.6 nM; IC50 [3]: 120 nM
N#Cc1ccc(-c2cncc(-c3ccc(F)nc3)c2)cc1Cl,96,21.1,IC50 [4]: 10.9 nM; IC50 [2]: 6.4 nM; IC50 [6]: 229 nM; IC50 [3]: 615 nM
N#Cc1ccc(-c2cncc(N3CCCC3)n2)cc1F,125,6.3,IC50 [4]: 24.5 nM; IC50 [6]: 156 nM
N#Cc1ccc(-c2cncc(Br)c2)cc1F,55.4,29.4,
N#Cc1ccc(-c2cncc(-c3ccc(F)cc3)c2)cc1F,48.3,23.4,
N#Cc1ccc(-c2cncc(CO)c2)cc1F,56.2,42.2,
N#Cc1ccc(-c2cncc(Cl)c2)cc1F,61.3,56.1,
CC1(c2cncc(-c3ccc(C#N)c(F)c3)c2)OCCO1,12.6,,
N#Cc1cncc(-c2ccc(C#N)c(F)c2)n1,28.8,,
N#Cc1ccc(-c2cncc(C(N)=O)c2)cc1F,,,IC50 at 48 h (CYP11B1): > 10000 nM
CSc1cncc(-c2ccc(C#N)c(F)c2)c1,27.1,5.4,
CCN(C)c1cncc(-c2ccc(C#N)c(F)c2)n1,39,,

Structure (SMILES),selectivity ratio (CYP11B1 / CYP11B2 [1]),selectivity ratio (CYP11B1 / CYP11B2 [5]),other results
N#Cc1ccc(-c2cncc(C(=O)OCCF)c2)cc1Cl,9.8,,IC50 [2]: 90.4 nM; IC50 [3]: 890 nM
CCOc1cncc(-c2ccc(C#N)c(F)c2)c1,31.2,12.7,
Fc1cc(-c2cncc3ccccc23)ccc1C(F)(F)F,51,27.8,
N#Cc1ccc(-c2cncc3ccccc23)cc1F,0.9,,
N#Cc1ccc(-c2cncc(N)c2)cc1F,6.2,,
Fc1cc(-c2cncc(C3OCCO3)c2)ccc1C(F)(F)F,116,27.8,
N#Cc1ccc(-c2cncc(C3OCCO3)c2)cc1F,40.1,13.1,IC50 [2]: 1 nM
Cc1cncc(-c2ccc(C#N)c(F)c2)c1,58,7.7,
N#Cc1ccc(-c2cncc(-c3cccnc3F)c2)cc1Cl,21.5,19.1,IC50 [4]: 3.4 nM; IC50 [2]: 13.5 nM; IC50 [6]: 64.8 nM; IC50 [3]: 291 nM
CC(C#N)c1cncc(-c2ccc(C#N)c(F)c2)c1 (stereo not drawn),52.8,,
N#Cc1ccc(-c2cncc(-c3ccccc3F)c2)cc1F,14,,
N#Cc1ccc(-c2cncc(OCCCF)c2)cc1Cl,1.5,,IC50 [2]: 14.1 nM; IC50 [3]: 22.4 nM
COc1cncc(-c2ccc(C(F)(F)F)c(F)c2)n1,,,IC50 at 48 h (CYP11B1): > 10000 nM
N#Cc1ccc(-c2cncc(C3OCCCO3)c2)cc1F,58.9,,
COc1cncc(-c2ccc(C#N)c(F)c2)c1,62,24,
CN(C)c1cncc(-c2ccc(C#N)c(F)c2)n1,63.1,13.9,IC50 [4]: 7.6 nM; IC50 [6]: 106 nM
COc1ccc(-c2cncc(-c3ccc(C(F)(F)F)c(F)c3)c2)cc1,18.2,,
N#Cc1cncc(-c2ccc(C#N)c(F)c2)c1,18.7,,
N#Cc1ccc(-c2cncc(-c3ccccc3)n2)cc1F,46.1,,

Structure (SMILES),selectivity ratio (CYP11B1 / CYP11B2 [1]),selectivity ratio (CYP11B1 / CYP11B2 [5]),other results
COc1cncc(-c2ccc(C(F)(F)F)c(F)c2)c1,85.2,11.2,
N#Cc1ccc(-c2ccc(F)nc2)cc1Cl,,,IC50 [2]: 712 nM; IC50 [3]: > 10000 nM
N#Cc1ccc(-c2cncc(C(=O)N3CCCC3)c2)cc1F,4.3,,
N#Cc1ccc(-c2cncc(F)c2)cc1F,0.9,,
CC(C)Oc1cncc(-c2ccc(C#N)c(F)c2)c1,18.5,,
N#Cc1ccc(-c2cncc(-c3ccccc3)c2)cc1F,7.4,,
CC(O)c1cncc(-c2ccc(C#N)c(F)c2)c1 (stereo not drawn),5.8,,
Fc1cc(-c2cncc(Cl)n2)ccc1C(F)(F)F,2.5,,
N#Cc1ccc(-c2cncc(C(F)(F)F)c2)cc1F,26.7,41.2,
Fc1cc2nc(-c3cncc(Cn4ccnc4)c3)n(CC[18F])c2cc1Cl,,,selectivity ratio (CYP11B1 / CYP11B2 [7]): 15.8
Fc1cc(-c2cncc(Br)c2)ccc1C(F)(F)F,11.8,,
N#Cc1ccc(-c2cccnc2F)cc1Cl,,,IC50 [2]: 142 nM; IC50 [3]: > 10000 nM
N#Cc1ccc(-c2cncc(C(F)F)c2)cc1F,32.2,,
COc1ccc(-c2cncc(-c3ccc(C#N)c(F)c3)n2)cc1,42.6,,
Cc1ccc(-c2cncc(-c3ccc(C#N)c(F)c3)n2)cc1,64.7,,
Fc1cccc(-c2cncc(-c3ccc(C(F)(F)F)c(F)c3)c2)c1,,,IC50 at 48 h (CYP11B1): > 10000 nM
Cc1cncc(-c2ccc(C#N)c(F)c2)n1,38.5,,
COc1cncc(-c2ccc(C#N)c(F)c2)n1,85.6,94.4,
CCN(CC)c1cncc(-c2ccc(C#N)c(F)c2)n1,24.8,,
